In this assay the target is T1, PLK4 (Homo sapiens, UniProt O00444).
T1 construct: expressed in transfected cells; host or cells: HEK293 T cells (ATCC CRL-3216)
T1 sequence (O00444 1-970): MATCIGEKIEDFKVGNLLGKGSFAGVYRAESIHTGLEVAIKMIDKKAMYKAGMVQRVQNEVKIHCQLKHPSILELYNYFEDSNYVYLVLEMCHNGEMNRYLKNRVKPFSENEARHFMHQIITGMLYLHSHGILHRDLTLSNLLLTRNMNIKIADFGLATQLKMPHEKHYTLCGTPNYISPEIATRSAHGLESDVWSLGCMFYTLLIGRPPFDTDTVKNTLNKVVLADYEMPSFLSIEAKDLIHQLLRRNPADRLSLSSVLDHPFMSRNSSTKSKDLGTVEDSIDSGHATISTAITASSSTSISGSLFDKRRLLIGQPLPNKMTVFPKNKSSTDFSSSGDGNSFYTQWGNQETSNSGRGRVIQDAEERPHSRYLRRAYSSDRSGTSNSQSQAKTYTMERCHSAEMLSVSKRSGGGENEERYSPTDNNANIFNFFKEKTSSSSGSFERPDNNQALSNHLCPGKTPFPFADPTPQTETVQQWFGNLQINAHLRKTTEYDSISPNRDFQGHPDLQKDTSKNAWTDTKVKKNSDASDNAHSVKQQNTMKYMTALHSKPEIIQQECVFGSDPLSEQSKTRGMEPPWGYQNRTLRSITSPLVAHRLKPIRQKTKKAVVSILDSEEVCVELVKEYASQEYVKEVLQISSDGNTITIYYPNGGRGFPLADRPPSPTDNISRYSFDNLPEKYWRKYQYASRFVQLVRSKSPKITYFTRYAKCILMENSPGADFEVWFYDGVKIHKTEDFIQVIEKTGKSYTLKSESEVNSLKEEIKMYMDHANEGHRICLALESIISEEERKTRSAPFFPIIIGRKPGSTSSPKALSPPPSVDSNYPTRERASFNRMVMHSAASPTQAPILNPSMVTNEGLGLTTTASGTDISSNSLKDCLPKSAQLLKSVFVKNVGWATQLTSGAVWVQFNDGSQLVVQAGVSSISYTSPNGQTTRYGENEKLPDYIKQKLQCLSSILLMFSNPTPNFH
Put plainly: PLK4 NanoBRET target engagement assay. Conditions: HEK293 T cells transfected with PLK4 NanoLuc fusion vector; K-5 tracer; 2 hrs incubation. Type of assay: binding. The essentials: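 HEK293T cells transiently expressing PLK4-NanoLuc, plated at 17000 cells/well with K-5 tracer and compound, incubated 2 h at 37 °C/5% CO2. After substrate/inhibitor mix, 610/450 nm emission ratio ×1000 gave mBRET; IC50 from 4-parameter fit.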
On the technique in general: BRET reads energy transfer from a luciferase to a nearby fluorophore.
One may read the IC50 as the concentration that inhibits the measured activity by half. Compound `CN(c1nc(Nc2n[nH]c3c2CCC3)c(C2CC2)c(-c2cnn(C)c2)n1)c1c(F)cc(S(C)(=O)=O)cc1F` [Compound 285] yielded an IC50 of 150 nM. In turn, `Cc1cc(Nc2nc(N(C)c3c(F)cc(S(C)(=O)=O)cc3F)nc(-c3cc4[nH]c(=O)ccn4n3)c2C2CC2)n[nH]1` [Compound 286] displayed a concentration for half-maximal inhibition (IC50) of 24 nM. Consider `CN(c1nc(Nc2cc(C3CC3)[nH]n2)c(C2CC2)c(-c2cn(C)c(C#N)n2)n1)c1c(F)cc(S(C)(=O)=O)cc1F` [Compound 287, 4-(5-cyclopropyl-6-((5-cyclopropyl-1H-pyrazol-3-yl)amino)-2-((2,6-difluoro-4-(methylsulfonyl)phenyl)(methyl)amino)pyrimidin-4-yl)-1-methyl-1H-imidazole-2-carbonitrile], for which the IC50 is 6 nM.

As for `Cc1cc(Nc2nc(N(C)c3c(F)cc(S(C)(=O)=O)cc3F)nc(-c3cnn4ccncc34)c2C2CC2)n[nH]1` [Compound 288], the IC50 came out at 22 nM. As for `Cc1cc(Nc2nc(N(C)c3c(F)cc(S(C)(=O)=O)cc3F)nc(-c3cnn(C)c3C(=O)O)c2C2CC2)n[nH]1` [Compound 289], the figure is 660 nM.

Take `COc1cc(Nc2nc(N(C)c3c(F)cc(S(C)(=O)=O)cc3F)nc(-c3cnn(C)c3)c2C2CC2)n[nH]1` [Compound 292]: the half-maximal inhibitory concentration (IC50) was determined as 24 nM. As for `Cc1cc(Nc2nc(N(C)c3c(F)cc(S(C)(=O)=O)cc3F)nc(-c3cn(C)c(C(=O)N(C)C)n3)c2C2CC2)n[nH]1` [Compound 293], the figure is 14 nM; as for `Cc1cc(Nc2nc(N(C)c3c(F)cc(S(C)(=O)=O)cc3F)nc(-c3cnn(C)c3C(C)(C)O)c2C2CC2)n[nH]1` [Compound 294], 9 nM; as for `CN(c1nc(Nc2cc(C#N)[nH]n2)c(C2CC2)c(-c2cnn(C)c2)n1)c1c(F)cc(S(C)(=O)=O)cc1F` [Compound 295], 75 nM. As for `CN(c1nc(Nc2cc(C3CC3)[nH]n2)c(C2CC2)c(-c2cnn(CC(C)(C)O)c2)n1)c1c(F)cc(S(C)(=O)=O)cc1F` [Compound 297], the figure is 14 nM. The result for `CN(c1nc(Nc2cc(C3CC3)[nH]n2)c(C2CC2)c(-c2cn(C)cn2)n1)c1cc(F)c(S(C)(=O)=O)cc1F` [Compound 298] reads 11 nM; that for `Cc1cc(Nc2nc(N(C)c3c(F)cc(S(C)(=O)=O)cc3F)nc(N3CCO[C@H](C(F)(F)F)C3)c2C2CC2)n[nH]1` [Compound 299], 180 nM; that for `Cc1cc(Nc2nc(N(C)c3c(F)cc(S(C)(=O)=O)cc3F)nc(N3CCO[C@@H](C(F)(F)F)C3)c2C2CC2)n[nH]1` [Compound 300], 150 nM. The compound `Cc1cc(Nc2nc(N(C)c3c(F)cc(S(C)(=O)=O)cc3F)nc(-c3cnc4n3CCOC4)c2C2CC2)n[nH]1` [Compound 302] came in with a half-maximal inhibitory concentration (IC50) of 8 nM.

`Cc1cc(Nc2nc(N(C)c3c(F)cc(S(C)(=O)=O)cc3F)nc(-c3cnn(C)c3N3CCCC3=O)c2C2CC2)n[nH]1` [Compound 304] returned a 50% inhibitory concentration (IC50) of 8 nM. As for `Cc1cc(Nc2nc(N(C)c3c(F)cc(S(C)(=O)=O)cc3F)nc(-c3cnn(C)c3C(O)C(F)(F)F)c2C2CC2)n[nH]1` (stereo not drawn) [Compound 305], the figure is 16 nM; as for `Cc1cc(Nc2nc(N(C)c3c(F)cc(S(C)(=O)=O)cc3F)nc(-c3cnn(C)c3C(O)(O)C(F)(F)F)c2C2CC2)n[nH]1` [Compound 306], 94 nM; as for `CC(=O)c1c(-c2nc(N(C)c3c(F)cc(S(C)(=O)=O)cc3F)nc(Nc3cc(C)[nH]n3)c2C2CC2)cnn1C` [Compound 307], 19 nM. Consider `Cc1cc(Nc2nc(N(C)c3c(F)cc(S(C)(=O)=O)cc3F)nc(-c3cnn(C)c3CC#N)c2C2CC2)n[nH]1` [Compound 308], for which the midpoint of inhibition, the IC50, lay at 2 nM. Turning to `Cc1cc(Nc2nc(N(C)c3c(F)cc(S(C)(=O)=O)cc3F)nc(-c3cnc4ccc(F)cn34)c2C2CC2)n[nH]1` [Compound 310], half-maximal inhibition (IC50) was put at 31 nM. The result for `COC(C)(C)c1c(-c2nc(N(C)c3c(F)cc(S(C)(=O)=O)cc3F)nc(Nc3cc(C)[nH]n3)c2C2CC2)cnn1C` [Compound 311] reads 14 nM.

The record behind these values is patent US20250177396A1, “POLO-LIKE KINASE 4 (PLK4) INHIBITORS, PHARMACEUTICAL COMPOSITIONS, METHODS OF PREPARATION AND USES THEREOF” (Repare Therapeutics Inc., priority 2022, published 2025).
